Data: patent US8106055B2, “Substituted amide compounds” (Gruenenthal GmbH, priority 2007, dated 2012)

Columns and labels:
[1] = molecular target: T1, bradykinin 1 receptor (B1R) of the rat (Rattus norvegicus, UniProt P97583); assay: Functional investigation on the rat bradykinin 1 receptor (B1R), Ca2+ FLIPR assay in CHO K1 rB1R cells; assay type: cell-based; conditions: CHO-K1, B1R antagonism rat; test substance 10 μM; Ca2+ FLIPR, CHO K1 rB1R cells; read-out: B1R Ant. r [10 μM] % Inhibition
T1 construct: expressed in transfected cells; host or cells: CHO K1 cells
T1 sequence (P97583 1-337): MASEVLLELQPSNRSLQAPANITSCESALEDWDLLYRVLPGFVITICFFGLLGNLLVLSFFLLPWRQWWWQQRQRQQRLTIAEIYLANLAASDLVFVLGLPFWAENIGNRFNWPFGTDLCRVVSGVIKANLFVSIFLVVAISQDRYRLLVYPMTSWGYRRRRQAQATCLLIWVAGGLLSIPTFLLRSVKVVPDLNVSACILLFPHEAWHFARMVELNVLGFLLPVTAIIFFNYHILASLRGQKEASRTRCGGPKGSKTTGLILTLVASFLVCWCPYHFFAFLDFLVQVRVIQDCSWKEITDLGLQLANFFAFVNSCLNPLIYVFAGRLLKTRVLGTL
Summary of the method: (§1)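 Cells were dye-loaded with Fluo-4 plus probenecid, then test substances added and Ca2+ influx compared with agonist control for % activation. After 10-20 min, EC80 agonist (Lys-Des-Arg9-bradykinin human; Des-Arg9-bradykinin rat) was applied; suppression gave % inhibition and IC50 values.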

[2] = molecular target: T2, human bradykinin 1 receptor (B1R) (Homo sapiens, UniProt P46663); assay: Functional investigation on the human bradykinin 1 receptor (B1R), Ca2+ FLIPR assay in CHO K1 hB1R cells; assay type: cell-based; conditions: CHO-K1, B1R antagonism human; test substance 10 μM; Ca2+ FLIPR, CHO K1 hB1R cells; read-out: B1R Ant. h [10 μM] % Inhibition
T2 construct: expressed in transfected cells; host or cells: CHO K1 cells
T2 sequence (P46663 1-353): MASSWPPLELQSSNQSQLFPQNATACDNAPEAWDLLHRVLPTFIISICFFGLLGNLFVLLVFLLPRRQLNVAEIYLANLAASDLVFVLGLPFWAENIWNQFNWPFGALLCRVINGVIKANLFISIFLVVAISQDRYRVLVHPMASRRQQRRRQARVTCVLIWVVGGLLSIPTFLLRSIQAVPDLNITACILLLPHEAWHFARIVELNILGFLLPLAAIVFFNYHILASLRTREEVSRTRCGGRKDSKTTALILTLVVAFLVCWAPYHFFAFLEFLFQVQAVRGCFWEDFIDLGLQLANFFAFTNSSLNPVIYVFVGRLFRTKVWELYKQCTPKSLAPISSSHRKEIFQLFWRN
Summary of the method: as §1

| Structure (SMILES) | inhibition at 10 µM [1] | inhibition at 10 µM [2] |
| --- | --- | --- |
| COc1cc(C)c(S(=O)(=O)N2CCC(OCC(=O)NCC3CCC(C(c4ccccc4)N(C)C)CC3)CC2)c(C)c1C (stereo not shown) [Example 143, N-((4-((dimethylamino)(phenyl)methyl)cyclohexyl)methyl)-2-(1-(4-methoxy-2,3,6-trimethylphenylsulfonyl)piperidin-4-yloxy)acetamide] | 19% | 11% |
| COc1cc(C)c(S(=O)(=O)N2CCCC(OCC(=O)NC3CCC(C(c4cccs4)N(C)C)CC3)C2)c(C)c1C (stereo not shown) [Example 144, N-(4-((dimethylamino)(thiophen-2-yl)methyl)cyclohexyl)-2-(1-(4-methoxy-2,3,6-trimethylphenylsulfonyl)piperidin-3-yloxy)acetamide] | 4% | 20% |
| COc1cc(C)c(S(=O)(=O)N2CCCC(OCC(=O)NCC3CCC(C(c4cccc(F)c4)N(C)C)CC3)C2)c(C)c1C (stereo not shown) [Example 145, N-((4-((dimethylamino)(3-fluorophenyl)methyl)cyclohexyl)methyl)-2-(1-(4-methoxy-2,3,6-trimethylphenylsulfonyl)piperidin-3-yloxy)acetamide] | 33% | 12% |
| COc1cc(C)c(S(=O)(=O)N2CCC(CCOCC(=O)NCC3CCC(C(c4ccccc4)N(C)C)CC3)CC2)c(C)c1C (stereo not shown) [Example 146, N-((4-((dimethylamino)(phenyl)methyl)cyclohexyl)methyl)-2-(2-(1-(4-methoxy-2,3,6-trimethylphenylsulfonyl)piperidin-4-yl)ethoxy)acetamide] | 26% | 23% |
| CN(C)C(c1cccc(F)c1)C1CCC(CCNC(=O)COCC2CCCCN2S(=O)(=O)c2ccc(Cl)c(Cl)c2)CC1 (stereo not shown) [Example 147, 2-((1-(3,4-dichlorophenylsulfonyl)piperidin-2-yl)methoxy)-N-(2-(4-((dimethylamino)(3-fluorophenyl)methyl)cyclohexyl)ethyl)acetamide] | 27% | 52% |
| COc1cc(C)c(S(=O)(=O)N(CCOCC(=O)NCC2CCC(C(c3ccccc3)N(C)C)CC2)Cc2ccccc2)c(C)c1 (stereo not shown) [Example 148, 2-(2-(N-benzyl-4-methoxy-2,6-dimethylphenylsulfonamido)ethoxy)-N-((4-((dimethylamino)(phenyl)methyl)cyclohexyl)methyl)acetamide] | 46% | 92% |
| COc1cc(C)c(S(=O)(=O)N(CCOCC(=O)NCCC2CCC(C(c3cccs3)N(C)C)CC2)Cc2ccccc2)c(C)c1 (stereo not shown) [Example 149, 2-(2-(N-benzyl-4-methoxy-2,6-dimethylphenylsulfonamido)ethoxy)-N-(2-(4-((dimethylamino) (thiophen-2-yl)methyl)cyclohexyl)ethyl)acetamide] | 10% | 72% |
| COc1ccc(S(=O)(=O)N2CCCCC2COCC(=O)NCC2CCC(C(c3ccccc3)N(C)C)CC2)cc1OC (stereo not shown) [Example 150, 2-((1-(3,4-Dimethoxyphenylsulfonyl)piperidin-2-yl)methoxy)-N-((4-((dimethylamino)(phenyl)methyl)cyclohexyl)methyl)acetamide] | 10% | 4% |
| COc1ccc(S(=O)(=O)N2CCCCC2COCC(=O)NCC2CCC(C(c3cccc(F)c3)N(C)C)CC2)c(OC)c1 (stereo not shown) [Example 151, 2-((1-(2,4-dimethoxyphenylsulfonyl)piperidin-2-yl)methoxy)-N-((4-((dimethylamino)(3-fluorophenyl)methyl)cyclohexyl)methyl)acetamide] | 23% | 24% |
| CN(C)C(c1cccs1)C1CCC(NC(=O)COCCN(C)S(=O)(=O)c2cccc(C(F)(F)F)c2)CC1 (stereo not shown) [Example 152, N-(4-((dimethylamino)(thiophen-2-yl)methyl)cyclohexyl)-2-(2-(N-methyl-3-(trifluoromethyl)phenylsulfonamido)ethoxy)acetamide] | 4% | 16% |
| COc1ccc(S(=O)(=O)N2CCC(OCC(=O)NC3CCC(C(c4cccs4)N(C)C)CC3)C2)cc1OC (stereo not shown) [Example 155, 2-(1-(3,4-dimethoxyphenylsulfonyl)pyrrolidin-3-yloxy)-N-(4-((dimethylamino)(thiophen-2-yl)methyl)cyclohexyl)acetamide] | 1% | -8% |
| Cc1ccc(S(=O)(=O)N2CCC(OCC(=O)NC3CCC(C(c4cccs4)N(C)C)CC3)C2)cc1 (stereo not shown) [Example 156, N-(4-((dimethylamino)(thiophen-2-yl)methyl)cyclohexyl)-2-(1-tosylpyrrolidin-3-yloxy)acetamide] | 20% | 5% |
| Cc1ccc(S(=O)(=O)N(C)CCOCC(=O)NCC2CCC(C(c3ccccc3)N(C)C)CC2)cc1 (stereo not shown) [Example 157, N-((4-((dimethylamino) (phenyl)methyl)cyclohexyl)methyl)-2-(2-(N,4-dimethylphenylsulfonamido)ethoxy)acetamide] | -1% | 5% |
| CN(C)C(c1cccc(F)c1)C1CCC(CNC(=O)COCCN(C)S(=O)(=O)c2ccc(Cl)cc2)CC1 (stereo not shown) [Example 158, 2-(2-(4-chloro-N-methylphenylsulfonamido)ethoxy)-N-((4-((dimethylamino)(3-fluorophenyl)methyl)cyclohexyl)methyl)acetamide] | 5% | 20% |
| CN(C)C(c1cccs1)C1CCC(NC(=O)COCCN(Cc2ccccc2)S(=O)(=O)c2ccccc2)CC1 (stereo not shown) [Example 161, 2-(2-(N-benzylphenylsulfonamido)ethoxy)-N-(4-((dimethylamino)(thiophen-2-yl)methyl)cyclohexyl)acetamide] | 3% | 1% |
| COc1ccc(S(=O)(=O)N2CCCC2COCC(=O)NC2CCC(C(c3cccs3)N(C)C)CC2)cc1 (stereo not shown) [Example 162, N-(4-((dimethylamino)(thiophen-2-yl)methyl)cyclohexyl)-2-((1-(4-methoxyphenylsulfonyl)pyrrolidin-2-yl)methoxy)acetamide] | 21% | -5% |
| COc1ccc(S(=O)(=O)N2Cc3ccccc3CC2COCC(=O)NCC2CCC(C(c3cccc(F)c3)N(C)C)CC2)cc1 (stereo not shown) [Example 163, N-((4-((dimethylamino)(3-fluorophenyl)methyl)cyclohexyl)methyl)-2-((2-(4-methoxyphenylsulfonyl)-1,2,3,4-tetrahydroisoquinolin-3-yl)methoxy)acetamide] | 36% | 40% |
| CN(C)C(c1cccc(F)c1)C1CCC(CNC(=O)COC2CCCCC2N(C)S(=O)(=O)c2ccc(Cl)c(Cl)c2)CC1 (stereo not shown) [Example 164, 2-(2-(3,4-dichloro-N-methylphenylsulfonamido)cyclohexyloxy)-N-((4-((dimethylamino)(3-fluorophenyl)methyl)cyclohexyl)methyl)acetamide] | 17% | 14% |
| COc1cc(C)c(S(=O)(=O)N2CCC(OCC(=O)NC3CCC(C(c4ccccc4)N(C)C)CC3)C2)c(C)c1 (stereo not shown) [Example 165, N-(4-((dimethylamino)(phenyl)methyl)cyclohexyl)-2-(1-(4-methoxy-2,6-dimethylphenylsulfonyl)pyrrolidin-3-yloxy)acetamide] | 38% | 98% |
| Cc1ccc(S(=O)(=O)N2CCC(OCC(=O)NC3CCC(C(c4cccc(F)c4)N(C)C)CC3)C2)cc1 (stereo not shown) [Example 167, N-(4-((dimethylamino)(3-fluorophenyl)methyl)cyclohexyl)-2-(1-tosylpyrrolidin-3-yloxy)acetamide] | 40% | -12% |
| COc1ccc(S(=O)(=O)N(C)CCOCC(=O)NCC2CCC(C(c3ccccc3)N(C)C)CC2)cc1OC (stereo not shown) [Example 169, 2-(2-(3,4-dimethoxy-N-methylphenylsulfonamido)ethoxy)-N-((4-((dimethylamino)(phenyl)methyl)cyclohexyl)methyl)acetamide] | -15% | -4% |
| CN(C)C(c1cccc(F)c1)C1CCC(CNC(=O)COC2CCN(S(=O)(=O)c3cccc(C(F)(F)F)c3)C2)CC1 (stereo not shown) [Example 170, N-((4-((dimethylamino)(3-fluorophenyl)methyl)cyclohexyl)methyl)-2-(1-(3-(trifluoromethyl)phenylsulfonyl)pyrrolidin-3-yloxy)acetamide] | 38% | 8% |
| CN(C)C(c1cccc(F)c1)C1CCC(NC(=O)COCCN(C)S(=O)(=O)c2c(Cl)cccc2Cl)CC1 (stereo not shown) [Example 171, 2-(2-(2,6-dichloro-N-methylphenylsulfonamido)ethoxy)-N-(4-((dimethylamino)(3-fluorophenyl)methyl)cyclohexyl)acetamide] | 43% | 68% |
